The values that follow come from BindingDB's records for doi:10.1021/jm900036m (The University of Newcastle, 2009).

This assay can be described thus: Inhibition of dynamin 1-mediated endocytosis internalization of Tf-A594 in human U2OS cells pretreated for 30 mins.

One may read the IC50 as the point on the concentration scale where inhibition reaches its midpoint.

With `CCCCCCCCCCNC(=O)/C(C#N)=C/c1c(C)n(CCN(C)C)c2ccccc12` [2-Cyano-N-decyl-3-[1-(2-dimethylaminoethyl)-2-methyl-1Hindol-3-yl]-acrylamide], the IC50 stood at 58.2 µM.

As for `CCCCCCNC(=O)/C(C#N)=C/c1c(C)n(CCCN(C)C)c2ccccc12` [2-Cyano-N-hexyl-3-[1-(3-dimethylaminopropyl)-2-methyl-1Hindol-3-yl]-acrylamide], the IC50 is 14.3 µM.

In the case of `CCCCCCCCNC(=O)/C(C#N)=C/c1cn(CCCN(C)C)c2ccccc12` [2-Cyano-N-octyl-3-(1-(3-dimethylaminopropyl)-1H-indol-3-yl)-acrylamide], the IC50 stood at 5 µM.

On to `CCCCCCCCNC(=O)/C(C#N)=C/c1c(C)n(CCN(C)C)c2ccccc12` [2-Cyano-N-octyl-3-[1-(2-dimethylaminoethyl)-2-methyl-1Hindol-3-yl]-acyrlamide], for which the IC50 stood at 13.2 µM.

Regarding `CCCCCCCCNC(=O)/C(C#N)=C/c1c(C)n(CCCN(C)C)c2ccccc12` [2-Cyano-N-octyl-3-[1-(3-dimethylaminopropyl)-2-methyl-1Hindol-3-yl]-acrylamide], the IC50 was found to be 10.8 µM.
